In one experiment the test system is A549. The experiment is described as follows: Anticancer activity against human A549 cells at 5 microg/ml relative to control. It counts as functional. Particulars: dose 5 µg/ml.
In experiment [1] the test system is MCF7. The experiment is described as follows: Cytotoxicity against human MCF7 cells assessed as reduction in cell viability by MTS assay. The class given is functional. Background: Tetrazolium assays rely on reduction of a dye to a coloured formazan, in cell work by metabolically active cells.
The test system of experiment [2] is NCI-H460. The experiment is described as follows: Cytotoxicity against human NCI-H460 cells assessed as reduction in cell viability by MTS assay. It counts as functional.
The subject of experiment [3] is SF-268. The experiment in a line: Cytotoxicity against human SF-268 cells assessed as reduction in cell viability by MTS assay. It counts as functional.
Experiment [4] addresses Nuclear factor NF-kappa-B complex (Homo sapiens) (UniProt Q00653+P19838+Q04206). The experiment in a line: Inhibition of NF-kB (unknown origin). The class given is protein-complex assay.
Experiment [5] relates to NCI-H460. The experiment is described as follows: Cytotoxicity against human NCI-H460 cells assessed as reduction in cell viability incubated for 48 hrs by MTT assay. The class given is functional.
Experiment [6] concerns MCF7. The experiment in a line: Cytotoxicity against human MCF7 cells assessed as reduction in cell viability incubated for 48 hrs by MTT assay. It counts as functional.
Experiment [7] in a line: Anticancer activity against human PBMC cells. The class given is functional, cell-based.
In a further experiment the test system is Jurkat. The experiment is described as follows: Antiproliferative activity against human Jurkat cells assessed as reduction in cell viability incubated for 2 days by MTT assay. The class given is functional, cell-based. The note with it: 48 h.
For experiment [8], the system named is MDA-MB-231. The experiment in a line: Antiproliferative activity against human MDA-MB-231 cells assessed as reduction in cell viability incubated for 2 days by MTT assay. It counts as functional, cell-based. Particulars: MDA-MB-231, 48 h.
Experiment [9] deals with MCF7. The experiment in a line: Cytotoxicity against human MCF7 cells. It counts as functional, cell-based.
In experiment [10] the test system is MCF7. The experiment in a line: Cytotoxicity against human MCF7 cells assessed as reduction in cell viability by MTT assay. It counts as functional, cell-based.
Experiment [11] deals with MDA-MB-231. The experiment is described as follows: Cytotoxicity against human MDA-MB-231 cells assessed as reduction in cell viability by MTT assay. The class given is functional, cell-based.
The test system of the next experiment is HCT-116. The experiment is described as follows: Cytotoxicity against human HCT-116 cells assessed as reduction in cell viability by MTT assay. It counts as functional, cell-based.
Experiment [12] concerns HeLa. The experiment is described as follows: Cytotoxicity against human HeLa cells assessed as reduction in cell viability by MTT assay. The class given is functional, cell-based.
The target in experiment [13] is Epidermal growth factor receptor (Homo sapiens, UniProt P00533). The experiment is described as follows: Inhibition of EGFR (unknown origin).
For experiment [14], the system named is Panel NCI-60 (60 carcinoma cell lines). The experiment is described as follows: Antitumor activity against human Panel NCI-60 (60 carcinoma cell lines) cells. The class given is functional.
For experiment [15] the test system is unchanged. The experiment in a line: Antiproliferative activity against human Panel NCI-60 (60 carcinoma cell lines) assessed as cell growth inhibition. The class given is functional.
For experiment [16], the system named is SF-268. The experiment is described as follows: Antitumor activity against human SF-268 cells. The class given is functional.
Experiment [17] has as its target Vascular endothelial growth factor receptor 2 (Homo sapiens) (UniProt P35968). The experiment in a line: Inhibition of VEGFR2 (unknown origin) at 20 uM using 5-FAM-KKKKEEIYFFF-CONH2 as substrate incubated for 1 hr in presence of ATP by kinase glo-assay relative to control. In general terms: Kinase-Glo reads ATP consumption through a luciferase reaction.
Experiment [18] has as its system MDA-MB-231. The experiment is described as follows: Cytotoxicity against human MDA-MB-231 cells assessed as inhibition of cell growth incubated for 48 hrs by MTT assay. It counts as functional, cell-based. The note with it: MDA-MB-231, 48 h.
The next experiment concerns HepG2. The experiment in a line: Cytotoxicity against human HepG2 cells assessed as inhibition of cell growth incubated for 48 hrs by MTT assay. It counts as functional, cell-based. The note with it: HepG2, 48 h.
The next experiment has as its system MG-63. The experiment is described as follows: Cytotoxicity against human MG-63 cells. It counts as functional, cell-based.
For experiment [19], the system named is HeLa. The experiment in a line: Cytotoxicity against human HeLa cells. It counts as functional, cell-based.
A further experiment concerns K562. The experiment is described as follows: Cytotoxicity against human K562 cells assessed as reduction in cell viability measured after 48 hrs by MTS assay. The class given is functional, cell-based. The note with it: K562, 48 h.
Experiment [20] deals with HeLa. The experiment in a line: Cytotoxicity against human HeLa cells assessed as reduction in cell viability measured after 48 hrs by MTS assay. The class given is functional, cell-based.
For experiment [21], the system named is HeLa. The experiment in a line: Antiproliferative activity against human HeLa cells assessed as reduction in cell growth after 72 hrs. It counts as functional, cell-based.

Molecules are shown by their SMILES. Converted amounts (≈) assume the structure as drawn.

What is called GI50 is the concentration that inhibits growth by half. Broadly, the IC50 is the concentration at which inhibition is half-maximal. The term inhibition denotes the change of the read-out against control, counted positive when it falls.

Sequence of Epidermal growth factor receptor (P00533 whole entry): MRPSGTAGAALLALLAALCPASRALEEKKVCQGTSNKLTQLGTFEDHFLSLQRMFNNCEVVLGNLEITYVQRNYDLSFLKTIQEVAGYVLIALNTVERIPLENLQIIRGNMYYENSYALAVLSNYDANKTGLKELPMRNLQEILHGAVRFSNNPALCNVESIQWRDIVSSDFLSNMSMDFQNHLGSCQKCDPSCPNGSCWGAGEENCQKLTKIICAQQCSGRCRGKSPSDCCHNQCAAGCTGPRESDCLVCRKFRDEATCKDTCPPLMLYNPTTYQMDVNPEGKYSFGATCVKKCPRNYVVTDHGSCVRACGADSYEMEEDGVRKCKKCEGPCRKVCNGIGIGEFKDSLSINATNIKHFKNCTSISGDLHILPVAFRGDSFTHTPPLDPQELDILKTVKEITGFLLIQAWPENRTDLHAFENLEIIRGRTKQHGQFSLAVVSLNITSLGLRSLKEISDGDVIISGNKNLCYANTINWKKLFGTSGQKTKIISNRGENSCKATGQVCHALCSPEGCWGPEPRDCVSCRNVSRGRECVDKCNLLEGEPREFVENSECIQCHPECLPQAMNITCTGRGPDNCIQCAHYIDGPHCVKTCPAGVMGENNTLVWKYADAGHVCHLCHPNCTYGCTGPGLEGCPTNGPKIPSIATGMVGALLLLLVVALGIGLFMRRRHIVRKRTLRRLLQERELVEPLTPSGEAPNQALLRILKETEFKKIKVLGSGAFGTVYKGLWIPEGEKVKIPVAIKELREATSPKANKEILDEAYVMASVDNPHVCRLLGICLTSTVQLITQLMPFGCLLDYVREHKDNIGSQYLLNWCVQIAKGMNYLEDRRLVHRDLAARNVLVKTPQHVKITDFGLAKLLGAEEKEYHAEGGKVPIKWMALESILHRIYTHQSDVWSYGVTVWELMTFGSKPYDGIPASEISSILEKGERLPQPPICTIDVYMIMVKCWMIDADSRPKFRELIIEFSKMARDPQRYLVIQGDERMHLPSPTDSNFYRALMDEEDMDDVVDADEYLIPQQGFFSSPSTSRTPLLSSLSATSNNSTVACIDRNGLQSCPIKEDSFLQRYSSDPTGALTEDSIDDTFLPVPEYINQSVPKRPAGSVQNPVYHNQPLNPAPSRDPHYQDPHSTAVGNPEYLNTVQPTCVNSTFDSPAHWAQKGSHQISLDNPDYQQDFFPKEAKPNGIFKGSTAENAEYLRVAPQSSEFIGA
Sequence of Nuclear factor NF-kappa-B complex (Homo sapiens) (P19838 whole entry, looked up): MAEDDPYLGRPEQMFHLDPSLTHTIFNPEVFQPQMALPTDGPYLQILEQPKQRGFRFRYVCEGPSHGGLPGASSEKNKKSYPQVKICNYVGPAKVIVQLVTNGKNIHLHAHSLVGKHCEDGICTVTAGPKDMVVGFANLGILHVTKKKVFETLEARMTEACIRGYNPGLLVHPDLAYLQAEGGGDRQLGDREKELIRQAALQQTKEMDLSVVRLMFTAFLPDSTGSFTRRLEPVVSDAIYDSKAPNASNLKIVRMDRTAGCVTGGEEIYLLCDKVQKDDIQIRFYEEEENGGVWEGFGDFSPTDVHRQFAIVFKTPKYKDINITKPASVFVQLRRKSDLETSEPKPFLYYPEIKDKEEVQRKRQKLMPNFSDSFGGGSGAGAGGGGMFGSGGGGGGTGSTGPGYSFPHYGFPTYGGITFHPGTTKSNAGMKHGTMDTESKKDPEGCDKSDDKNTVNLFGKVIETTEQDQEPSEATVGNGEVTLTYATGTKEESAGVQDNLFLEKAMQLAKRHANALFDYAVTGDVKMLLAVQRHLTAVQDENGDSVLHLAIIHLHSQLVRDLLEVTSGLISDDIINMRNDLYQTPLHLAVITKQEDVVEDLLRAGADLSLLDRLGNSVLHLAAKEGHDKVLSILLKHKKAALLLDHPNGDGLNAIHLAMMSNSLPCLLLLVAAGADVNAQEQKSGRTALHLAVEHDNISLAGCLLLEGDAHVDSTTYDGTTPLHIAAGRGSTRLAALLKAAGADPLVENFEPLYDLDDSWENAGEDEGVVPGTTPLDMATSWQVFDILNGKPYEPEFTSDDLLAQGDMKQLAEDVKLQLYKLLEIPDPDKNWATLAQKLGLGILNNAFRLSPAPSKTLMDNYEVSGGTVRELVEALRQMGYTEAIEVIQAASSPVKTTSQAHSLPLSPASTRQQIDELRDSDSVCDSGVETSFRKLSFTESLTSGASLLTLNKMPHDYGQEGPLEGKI
Sequence of Nuclear factor NF-kappa-B complex (Homo sapiens) (Q00653 whole entry, looked up): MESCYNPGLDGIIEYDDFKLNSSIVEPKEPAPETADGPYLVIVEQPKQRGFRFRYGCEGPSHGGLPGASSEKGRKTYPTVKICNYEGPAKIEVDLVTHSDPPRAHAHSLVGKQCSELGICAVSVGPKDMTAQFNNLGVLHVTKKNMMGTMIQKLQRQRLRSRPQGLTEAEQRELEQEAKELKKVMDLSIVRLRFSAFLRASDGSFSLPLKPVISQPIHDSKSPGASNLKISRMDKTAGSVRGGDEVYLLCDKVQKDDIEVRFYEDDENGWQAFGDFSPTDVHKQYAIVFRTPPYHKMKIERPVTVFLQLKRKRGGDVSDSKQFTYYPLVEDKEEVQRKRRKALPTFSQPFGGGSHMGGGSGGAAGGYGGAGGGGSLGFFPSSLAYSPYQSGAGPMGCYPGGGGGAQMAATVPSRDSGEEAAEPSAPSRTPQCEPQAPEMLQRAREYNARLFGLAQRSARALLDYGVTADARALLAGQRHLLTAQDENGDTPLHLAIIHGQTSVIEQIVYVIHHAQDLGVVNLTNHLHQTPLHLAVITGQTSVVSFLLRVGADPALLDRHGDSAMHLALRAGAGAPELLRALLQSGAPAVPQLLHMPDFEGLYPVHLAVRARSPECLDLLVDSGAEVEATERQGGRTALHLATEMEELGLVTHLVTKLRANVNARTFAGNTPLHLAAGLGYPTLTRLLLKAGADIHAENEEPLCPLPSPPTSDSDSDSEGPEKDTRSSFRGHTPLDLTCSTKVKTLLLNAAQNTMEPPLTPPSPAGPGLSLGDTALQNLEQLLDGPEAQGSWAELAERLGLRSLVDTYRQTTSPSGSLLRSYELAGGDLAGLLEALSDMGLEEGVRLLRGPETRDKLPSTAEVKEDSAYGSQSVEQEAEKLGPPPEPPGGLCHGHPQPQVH
Sequence of Nuclear factor NF-kappa-B complex (Homo sapiens) (Q04206 whole entry, looked up): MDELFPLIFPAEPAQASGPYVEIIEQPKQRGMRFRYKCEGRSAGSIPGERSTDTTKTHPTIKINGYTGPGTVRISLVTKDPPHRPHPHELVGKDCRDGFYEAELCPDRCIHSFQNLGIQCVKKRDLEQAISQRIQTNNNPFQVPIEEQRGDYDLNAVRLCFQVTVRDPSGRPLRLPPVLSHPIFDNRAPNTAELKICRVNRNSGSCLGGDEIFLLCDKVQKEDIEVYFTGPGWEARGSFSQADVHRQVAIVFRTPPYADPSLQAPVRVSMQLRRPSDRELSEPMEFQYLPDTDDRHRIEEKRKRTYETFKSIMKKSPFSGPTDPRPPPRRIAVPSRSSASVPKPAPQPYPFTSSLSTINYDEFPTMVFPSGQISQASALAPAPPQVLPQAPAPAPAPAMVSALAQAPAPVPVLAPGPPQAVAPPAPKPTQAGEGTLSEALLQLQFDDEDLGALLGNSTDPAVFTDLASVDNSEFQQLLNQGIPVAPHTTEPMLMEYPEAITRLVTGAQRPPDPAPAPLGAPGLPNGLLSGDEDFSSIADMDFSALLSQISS
Sequence of Vascular endothelial growth factor receptor 2 (Homo sapiens) (P35968 whole entry): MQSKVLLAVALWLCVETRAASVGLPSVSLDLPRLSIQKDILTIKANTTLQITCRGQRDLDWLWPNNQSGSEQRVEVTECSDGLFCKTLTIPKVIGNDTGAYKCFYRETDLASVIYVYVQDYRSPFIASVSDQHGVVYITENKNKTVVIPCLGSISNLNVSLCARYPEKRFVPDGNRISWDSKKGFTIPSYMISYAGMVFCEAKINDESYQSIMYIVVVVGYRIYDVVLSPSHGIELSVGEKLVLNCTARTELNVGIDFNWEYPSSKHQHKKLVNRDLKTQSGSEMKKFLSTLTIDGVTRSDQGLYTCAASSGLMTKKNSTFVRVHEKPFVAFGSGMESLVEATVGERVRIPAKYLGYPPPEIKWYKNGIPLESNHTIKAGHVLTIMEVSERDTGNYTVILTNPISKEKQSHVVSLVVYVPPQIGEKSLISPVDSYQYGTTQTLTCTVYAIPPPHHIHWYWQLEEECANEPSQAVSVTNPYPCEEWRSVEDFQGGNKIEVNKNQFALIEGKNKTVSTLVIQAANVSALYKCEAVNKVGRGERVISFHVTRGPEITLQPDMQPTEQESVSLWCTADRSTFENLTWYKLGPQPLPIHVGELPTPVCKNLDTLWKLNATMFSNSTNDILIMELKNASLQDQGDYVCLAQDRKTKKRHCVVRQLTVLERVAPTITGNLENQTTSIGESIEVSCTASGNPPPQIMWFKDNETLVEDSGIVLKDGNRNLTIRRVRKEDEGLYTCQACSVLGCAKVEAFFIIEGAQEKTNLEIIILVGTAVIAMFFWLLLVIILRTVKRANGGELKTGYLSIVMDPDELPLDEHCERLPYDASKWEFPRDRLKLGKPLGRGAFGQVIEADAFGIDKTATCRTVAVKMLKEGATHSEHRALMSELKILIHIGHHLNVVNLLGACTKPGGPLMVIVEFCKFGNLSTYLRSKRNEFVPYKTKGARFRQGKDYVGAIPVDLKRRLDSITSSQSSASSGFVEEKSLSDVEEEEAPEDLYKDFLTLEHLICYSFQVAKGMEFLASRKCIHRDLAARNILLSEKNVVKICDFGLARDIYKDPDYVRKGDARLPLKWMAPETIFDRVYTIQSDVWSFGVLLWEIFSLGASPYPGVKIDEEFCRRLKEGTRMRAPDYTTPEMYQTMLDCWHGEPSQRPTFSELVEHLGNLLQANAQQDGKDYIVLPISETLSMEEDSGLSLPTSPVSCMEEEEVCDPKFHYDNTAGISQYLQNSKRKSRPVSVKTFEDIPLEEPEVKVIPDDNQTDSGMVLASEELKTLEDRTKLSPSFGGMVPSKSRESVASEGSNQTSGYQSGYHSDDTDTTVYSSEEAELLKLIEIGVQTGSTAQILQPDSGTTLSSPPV

In the case of `Cc1cc(Cl)cc(C(=O)NC2CCCCC2)c1NC(=O)c1sc(-c2ccccc2Cl)nc1C(F)(F)F`, the Activity in the experiment on A549 was 48%.

As to `C/C(=N\N=c1/scc(-c2ccc(Cl)cc2)n1-c1ccccc1)C1CC[C@@]2(C)[C@]3(C)CC=C4C[C@@H](O)CC[C@]4(C)[C@@]3(C)CC[C@]12C` (some centres undefined), the GI50 stood at 0.2 µM with MCF7 [1], 0.2 µM with NCI-H460 [2] and 0.8 µM in the experiment on SF-268 [3].

In [4], `CNc1nc(C)c(-c2nc3ccccc3c(=O)n2-c2ccc(Cl)cc2)s1` had an IC of 3.3 µM.

Consider `C/C(=N\NC(=O)/C(C#N)=C1\SC=C(O)N1c1ccccc1)C1CC[C@@]2(C)[C@]3(C)CC=C4C[C@@H](O)CC[C@]4(C)[C@@]3(C)CC[C@]12C` (some centres undefined), for which the GI50 in the experiment on NCI-H460 [5] stood at 0.09 µM; in the experiment on MCF7 [6] it was 0.04 µM.

Turning to `Clc1ccc(-c2csc(N/N=C/c3ccccn3)n2)cc1`, the IC50 in experiment [7] is > 30 µM.

On to `CCC[C@H](NS(=O)(=O)c1ccc(C)cc1)[C@]1(c2ccccc2Cl)N=C(SCC)SC1=O`, for which the IC50 worked out at 17 µM in the experiment on Jurkat and 38 µM in the experiment on MDA-MB-231 [8].

In turn, `O=c1[nH]cc(F)c(=O)[nH]1` [FLUOROURACIL] yielded an IC50 in the experiment with MCF7 [9] of 5.5 µg/mL. Besides, the Activity in the experiment with A549 was 57%.

In the case of `O=C(Nn1c(-c2ccc(Br)cc2)cs/c1=N\c1ccc([N+](=O)[O-])cc1)c1ccc(Cl)cc1`, the concentration for half-maximal inhibition (IC50) in the experiment with MCF7 [10] was determined as 5.37 µM; in the experiment on MDA-MB-231 [11], 5.37 µM; in the experiment with HCT-116 it was 5.37 µM; in the experiment with HeLa [12], 5.37 µM; in [13], 8.28 µM.

On to `Cn1c(-c2csc(-c3c[nH]c4ncccc34)n2)cc2cc(Br)cnc21`, for which, in experiment [14], halving of growth (GI50) required 0.81 µM.

As to `Cn1cc(-c2nc(-c3c[nH]c4ccccc34)cs2)c2cccnc21`, the GI50 in experiment [15] turned out to be 0.04 µM.

Molecule `CC(=O)C(C(C)=O)=C1SC(n2nc(O)cc2N)=CN1c1ccccc1` displayed a GI50 with SF-268 [16] of 0.01 µM.

Consider `COc1ccc(CN2CCN(c3ccc(NC(=O)Cc4csc5nc(-c6ccc(Cl)cc6)cn45)cn3)CC2)cc1`, for which, in experiment [17], the inhibition worked out at 5.72%. The IC50 is 1.4 µM in the experiment on MDA-MB-231 [18] and 22.6 µM with HepG2.

As for `Cn1cc(-c2csc(-c3cn(C)c4ncccc34)n2)c2ccccc21`, the GI50 in experiment [15] was found to be 0.03 µM.

Take `Nc1ccccc1C(=O)Nn1c(-c2ccc(Cl)cc2)cs/c1=N/c1ccc([N+](=O)[O-])cc1`: the IC50 in the experiment on MCF7 [10], in the experiment with MDA-MB-231 [11], in the experiment with HCT-116 and in the experiment with HeLa [12] was 5.37 µM in each case.

As for `C/C(=N\N=c1/scc(-c2ccc(Br)cc2)n1-c1ccccc1)C1CC[C@@]2(C)[C@]3(C)CC=C4C[C@@H](O)CC[C@]4(C)[C@@]3(C)CC[C@]12C` (some centres undefined), the GI50 in the experiment with MCF7 [1] came out at 0.6 µM; with NCI-H460 [2], 0.6 µM; in the experiment on SF-268 [3], 0.4 µM.

Consider `CC(=O)Nc1nc2ccc(NS(=O)(=O)c3ccc(C4CCCCC4)cc3)cc2s1`, for which the IC50 was found to be 36 µM in the experiment on MCF7 [9], 34 µM in the experiment on MG-63 and 44 µM in the experiment with HeLa [19].

In experiment [14], `Clc1nccc2c(-c3csc(-c4c[nH]c5ccc(Br)cc45)n3)c[nH]c12` registered a GI50 of 0.93 µM.

For `Cc1cccc(N(c2cccc(Cl)c2)c2c3ccccc3nc3scnc23)c1`, the IC50 with K562 and with HeLa [20] was 5.69 µM throughout.

On to `COc1ccc(/C=N/Nc2nc(-c3ccccc3)cs2)cc1`, for which, in the experiment on HeLa [21], the half-inhibitory concentration (IC50) was 11.1 µg/mL (≈ 35.9 µM).

`N#CC(C#N)=C1SC(n2nc(O)cc2N)=CN1c1ccccc1`: in the experiment with SF-268 [16], the concentration for 50% growth inhibition (GI50) is 0.01 µM.

Values taken from ChEMBL document CHEMBL5244229, “Thiazole-containing compounds as therapeutic targets for cancer therapy” (Eur J Med Chem, 2020).
